Measured values from patent US10370401B2, “Substituted nucleosides, nucleotides and analogs thereof” (Alios BioPharma, Inc., priority 2013, dated 2019).
Read-outs that look alike come from different tables or passages of the source.

Key:
[1] = test system: HRV-89; experiment: Human rhinovirus strain panel assay, HRV-89; format: cell-based; conditions: Rhinovirus A, HRV89
[2] = test system: human rhinovirus 16 (HRV-16), coxasackie B3 (CVB3), enterovirus-68 (EV-68) and enterovirus-71 (EV-71); experiment: Enterovirus assay (four viruses, CellTiter Glo); format: cell-based
[3] = test system: Human rhinovirus 1B; experiment: Picornavirus assay (CPE, CellTiter-Glo, HeLa-OHIO cells); format: cell-based; conditions: Rhinovirus A, 96 h
[4] = Cytotoxicity in HeLa OHIO host cell line; format: cell-based; conditions: human, HeLa-OHIO cells, n>5
[5] = test system: subgenomic HCV replicon; experiment: HCV replicon assay (Huh-7, luciferase reporter); format: cell-based; conditions: Hepatitis C virus
[6] = test system: Dengue virus type 2 strain New Guinea C (NG-C) or Dengue virus type 4 strain H241; experiment: Dengue virus cell-based assay (Huh-7.5 cells, CellTiter-Glo); conditions: Dengue virus, Huh7.5
Description: The Dengue virus type 2 strain New Guinea C (NG-C) and the Dengue virus type 4 strain H241 were purchased from ATCC (Manassas, Va.; item numbers VR-1584 and VR-1490, respectively). 24 h prior to dosing, Huh-7.5 cells were plated in 96 well plates at a density of 1.5×10^5/mL in DMEM medium supplemented with 10% fetal bovine serum, 1% HEPES buffer, 1% Penicillin/Streptomycin and 1% non-essential amino acids (all Mediatech, Manassas, Va.). At the day of infection, serially diluted compounds were added to cells and incubated for 4 h. After the end of the 4 h pre-incubation period, cells were infected with either Dengue virus type 2 NG-C or Dengue virus type 4H241. The virus inoculum was selected to cause 80-90% cytopathic effect in five to six days. Infected cells were incubated for five (NG-C) to six (H241) days at 37° C., 5% CO2. To develop the assay, 100 μL media was replaced with 100 μl CellTiter-Glo® reagent (Promega, Madison, Wis.), and incubated for 10 mins at RT. Luminescence was measured on a Victor X3 multi-label plate reader. Potential compound cytotoxicity of was determined using uninfected parallel cultures.

[7] = Human rhinovirus 1B, HeLa-OHIO cells, 4 d at 33° C., read-out: EC50

Row | SMILES | EC50 [3, 7] [nM] | IC50 [6] [nM] | EC50 [3] [nM] | further results
1 | CC(C)OC(=O)OCOP(=O)(OCOC(=O)OC(C)C)OC[C@@]1(CF)O[C@@H](n2ccc(=O)[nH]c2=O)[C@](C)(O)[C@@H]1O [Compound 44] | < 1000 | – | – | EC50 ([1]; HRV-89, HeLa-OHIO cells, read-out: EC50): 1000 to 2000 nM; EC50 ([2]; HRV-16, CVB3, EV-68 (HeLa-OHIO cells) and EV-71 (RD cells), read-out: EC50 ranging (across four viruses)): 380 to 2520 nM; EC50 ([2]; mean over HRV-16, CVB3, EV-68 and EV-71, read-out: EC50 mean (across four viruses)): 1390 ± 1140 nM; CC50 [4]: > 100000 nM; EC50 ([5]; Huh-7 HCV replicon cells, luciferase, 72 hours, read-out: EC50): < 1000 nM
2 | CCOc1nc(N)nc2c1ncn2[C@@H]1O[C@](F)(COP(=O)(N[C@@H](C)C(=O)OC2CCCCC2)Oc2ccccc2)[C@@H](F)[C@@]1(C)O (some centres unmarked) [Compound 16] | – | < 10000 | 1000 to 10000 | EC50 ([5]; Huh-7, 72 h): 1000 to 10000 nM
3 | C[C@H](NP(=O)(OC[C@@]1(F)O[C@@H](n2cnc3c(=O)[nH]c(N)nc32)[C@](C)(O)[C@@H]1F)Oc1ccccc1)C(=O)OC1CCCCC1 (some centres unmarked) [Compound 14] | – | < 10000 | 10000 to 100000 | EC50 ([5]; Huh-7, 72 h): 10000 to 100000 nM
4 | CC(C)OC(=O)OCOP(=O)(OCOC(=O)OC(C)C)OC[C@@]1(CF)O[C@@H](n2ccc(=O)[nH]c2=O)[C@](C)(O)[C@@H]1OC(=O)C(N)C(C)C (some centres unmarked) [Compound 160] | – | – | < 1000 | EC50 [1]: 1000 to 2000 nM; CC50 [4]: > 100000 nM
5 | CCOc1nc(N)nc2c1ncn2[C@@H]1O[C@]2(F)CO[P@@](=O)(OC(C)C)O[C@H]2[C@@]1(C)O [Compound 89] | 10000 to 100000 | < 10000 | – | –
6 | C#C[C@]1(O)[C@H](n2ccc(=O)[nH]c2=O)O[C@](F)(COP(=O)(N[C@@H](C)C(=O)OC2CCCCC2)Oc2ccccc2)[C@H]1O (some centres unmarked) [Compound 13] | – | < 1000 | < 1000 | –
7 | CC(C)OC(=O)OCOP(=O)(OCOC(=O)OC(C)C)OC[C@@]1(F)O[C@@H](n2ccc(=O)[nH]c2=O)[C@](C)(F)[C@@H]1O [Compound 161] | 1000 to 10000 | < 10000 | – | –
8 | CC(C)OC(=O)OCOP(=O)(OCOC(=O)OC(C)C)OC[C@@]1(F)O[C@@H](n2ccc(=O)[nH]c2=O)[C@](C)(O)[C@@H]1O [Compound 9] | < 1000 | < 10000 | – | –
9 | CCOc1nc(N)nc2c1ncn2[C@@H]1O[C@](F)(CO[P@@](=O)(N[C@@H](C)C(=O)OC2CCCCC2)Oc2ccccc2)[C@@H](O)[C@@]1(C)F [Compound 26] | – | < 1000 | 1000 to 10000 | –
10 | CCOc1nc(N)nc2c1ncn2[C@@H]1O[C@](F)(COP(=O)(OCOC(=O)OC(C)C)OCOC(=O)OC(C)C)[C@@H](O)[C@@]1(C)O [Compound 55] | < 1000 | < 1000 | – | –
11 | CCOc1nc(N)nc2c1ncn2[C@@H]1O[C@]2(F)CO[P@](=O)(OC(C)C)O[C@H]2[C@@]1(C)F [Compound 86] | 10000 to 100000 | < 1000 | – | –
